Assay [1] relates to U87MG pLVX-IDH2 R140Q-neo cells. In words: U87MG pLVX-IDH2 R140Q-neo cell based assay, 2-HG in media by LC-MS at 48 hours. The note with it: Homo sapiens, U-87 MG. Put shortly:
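2-HG secreted into the medium was measured by LC-MS after 48 h of compound treatment (0.2% DMSO final) of U87MG pLVX-IDH2 R140Q-neo cells in DMEM/10% FBS. The same wells were assayed at 72 h by CellTiter-Glo luminescence for effects on growth.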

In assay [2] the target is T1, IDH2 R140Q (Homo sapiens, UniProt P48735, R140Q).
T1 sequence (P48735 40-452 R140Q): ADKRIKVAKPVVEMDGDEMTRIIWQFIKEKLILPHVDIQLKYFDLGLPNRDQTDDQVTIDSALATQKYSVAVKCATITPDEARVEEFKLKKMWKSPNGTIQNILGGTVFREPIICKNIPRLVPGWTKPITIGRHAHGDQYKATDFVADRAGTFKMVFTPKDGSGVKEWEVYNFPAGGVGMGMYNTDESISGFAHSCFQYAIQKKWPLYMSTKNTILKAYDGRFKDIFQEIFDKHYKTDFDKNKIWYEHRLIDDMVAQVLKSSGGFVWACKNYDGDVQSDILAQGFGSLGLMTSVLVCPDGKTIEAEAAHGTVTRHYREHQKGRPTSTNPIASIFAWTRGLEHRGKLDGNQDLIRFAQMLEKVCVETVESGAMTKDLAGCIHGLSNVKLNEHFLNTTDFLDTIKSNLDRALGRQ
Briefly: IDH2 R140Q enzymatic assay (cofactor depletion, similar format). Particulars: read-out: Enz R140Q. It counts as biochemical.

In assay [3] the target is T2, IDH2 R172K (Homo sapiens, UniProt P48735, R172K).
T2 sequence (P48735 40-452 R172K): T1 sequence (P48735 40-452 R140Q) with Q101R, R133K
In words: IDH2 R172K enzymatic assay (NADPH cofactor depletion, diaphorase/resazurin readout). The class given is biochemical. Particulars: read-out: Enz R172K. How it is done: Compounds are assayed for IDH2 R172K inhibitory activity through a cofactor depletion assay. […] The reaction is terminated by the addition of a second enzyme, diaphorase, and a corresponding substrate, resazurin. Diaphorase reduces resazurin to the highly fluorescent resorufin with the concomitant oxidation of NADPH to NADP, both halting the IDH2 reaction by depleting the available cofactor pool and facilitating quantitation of the amount of cofactor remaining after a specific time period through quantitative production of an easily detected fluorophore.
The test compound is then incubated for one hour at room temperature with the enzyme; before starting the IDH2 reaction with the addition of 10 μl of substrate mix containing 50 μM NADPH and 6.3 mM α-KG in the buffer described above. After a further one hour of incubation at room temperature, the reaction is halted and the remaining NADPH measured through conversion of resazurin to resorufin by the addition of 25 μl Stop Mix (36 μg/ml diaphorase enzyme and 60 μM resazurin; in buffer).

Where a chain is given by its changes, count along the chain named.

Take `FC(F)(F)c1cc(Nc2nc(NC3CCOCC3)nc(-c3cccc(C(F)(F)F)n3)n2)ccn1` [Compound 587, N2-(tetrahydro-2H-pyran-4-yl)-6-(6-(trifluoromethyl)pyridin-2-yl)-N4-(2-(trifluoromethyl)pyridin-4-yl)-1,3,5-triazine-2,4-diamine]: the figures for the IC50 in assay [1], in assay [2] and in assay [3] were under 100 nM, 100 to 1000 nM and under 100 nM, respectively.
Consider `CC(C)Nc1nc(Nc2ccccc2)nc(-c2ccccc2C#N)n1` [Compound 139], for which the IC50 was 100 to 1000 nM in assay [1], under 100 nM in assay [2] and 1000 to 10000 nM in assay [3].
On the same counts, the results for `CC(C)Nc1nc(Nc2cccc(C#N)c2)nc(-c2ccccc2)n1` [Compound 130] are under 100 nM, under 100 nM and 100 to 1000 nM.
With `CC(C)Nc1nc(Nc2cccc(S(=O)(=O)NC(C)(C)C)c2)nc(-c2ccccc2)n1` [Compound 342, N-tert-butyl-3-(4-(isopropylamino)-6-phenyl-1,3,5-triazin-2-ylamino)benzenesulfonamide], the IC50 in assay [1] lay in the range of 1000 to 10000 nM; in assay [2] it was 100 to 1000 nM; in assay [3], 1000 to 10000 nM.
As to `CC(C)Nc1nc(Nc2ccnc(C(F)(F)F)c2)nc(-c2cccc(=O)[nH]2)n1` [Compound 650, 6-(4-(isopropylamino)-6-((2-(trifluoromethyl)pyridin-4-yl)amino)-1,3,5-triazin-2-yl)pyridin-2(1H)-one], the IC50 in assay [1] lay in the range of 100 to 1000 nM; in assay [2], 100 to 1000 nM; in assay [3] it was 1000 to 10000 nM.
As for `c1ccc(Nc2nc(NC3CCCOC3)nc(-c3ccccc3)n2)cc1` (stereo not drawn) [Compound 268, N^2,6-diphenyl-N^4-(tetrahydro-2H-pyran-3-yl)-1,3,5-triazine-2,4-diamine], the IC50 in assay [1] was 100 to 1000 nM; in assay [2] it was under 100 nM; in assay [3], 100 to 1000 nM.
As for `CC(C)Nc1nc(Nc2ccnc(C(F)(F)F)c2)nc(-c2cccc(O)c2)n1` [Compound 640, 3-[4-Isopropylamino-6-(2-trifluoromethyl-pyridin-4-ylamino)-[1,3,5]triazin-2-yl]-phenol], the IC50 in assay [1], in assay [2] and in assay [3] was under 100 nM throughout.
With `CC(C)CNc1nc(Nc2ccncc2)nc(-c2ccccc2)n1` [Compound 190, N^2-isobutyl-6-phenyl-N^4-(pyridin-4-yl)-1,3,5-triazine-2,4-diamine], the IC50 in assay [1] is under 100 nM; in assay [2] it was under 100 nM; in assay [3], 100 to 1000 nM.
`CC(C)Nc1nc(Nc2ccnc(C3(C)CC3)c2)nc(-c2cccc(C(F)(F)F)n2)n1` [Compound 581, N-Isopropyl-N′-[2-(1-methyl-cyclopropyl)-pyridin-4-yl]-6-(6-trifluoromethyl-pyridin-2-yl)-[1,3,5]triazine-2,4-diamine]: the figures for the IC50 in assay [1], in assay [2] and in assay [3] were under 100 nM, 100 to 1000 nM and under 100 nM, respectively.
Take `CC(C)(C)Nc1nc(Nc2cc(F)cc(F)c2)nc(-c2nccc(N)n2)n1` [Compound 479, 6-(4-Amino-pyrimidin-2-yl)-N-tert-butyl-N′-(3,5-difluoro-phenyl)-[1,3,5]triazine-2,4-diamine]: the IC50 in assay [1] is under 100 nM; in assay [2], 100 to 1000 nM; in assay [3] it was 100 to 1000 nM.
In the case of `CC(C)Nc1nc(Nc2cccc(S(=O)(=O)N(C)C)c2)nc(-c2ccccc2)n1` [Compound 177, 3-(4-(isopropylamino)-6-phenyl-1,3,5-triazin-2-ylamino)-N,N-dimethylbenzenesulfonamide], the IC50 in assay [1] is under 100 nM; in assay [2], under 100 nM; in assay [3], 100 to 1000 nM.
`CC(C)Nc1nc(Nc2ccnc(C(F)F)c2)nc(-c2cccc(C(C)(F)F)n2)n1` [Compound 675, 6-[6-(1,1-Difluoro-ethyl)-pyridin-2-yl]-N-(2-difluoromethyl-pyridin-4-yl)-N′-isopropyl-[1,3,5]triazine-2,4-diamine]: the values for the IC50 in assay [1], in assay [2] and in assay [3] were under 100 nM, 100 to 1000 nM and under 100 nM, respectively.
Consider `c1ccc(-c2nc(Nc3ccncc3)nc(NC3CCOC3)n2)cc1` (stereo not drawn) [Compound 235, 6-phenyl-N^2-(pyridin-4-yl)-N^4-(tetrahydrofuran-3-yl)-1,3,5-triazine-2,4-diamine], for which the results for the IC50 in assay [1], in assay [2] and in assay [3] were 100 to 1000 nM, 100 to 1000 nM and 1000 to 10000 nM, respectively.
`CC(C)(C)CNc1nc(Nc2ccnc(C(F)(F)F)c2)nc(-c2cccc(N)n2)n1` [Compound 689, 6-(6-aminopyridin-2-yl)-N2-neopentyl-N4-(2-(trifluoromethyl)pyridin-4-yl)-1,3,5-triazine-2,4-diamine]: the values for the IC50 in assay [1], in assay [2] and in assay [3] were under 100 nM, 100 to 1000 nM and under 100 nM, respectively.
Take `CC(C)Nc1nc(Nc2cc(F)cc(F)c2)nc(-c2cc(Cl)cc(N)n2)n1` [Compound 485, 6-(6-amino-4-chloropyridin-2-yl)-N^2-(3,5-difluorophenyl)-N^4-isopropyl-1,3,5-triazine-2,4-diamine]: the figures for the IC50 in assay [1], in assay [2] and in assay [3] were under 100 nM, 100 to 1000 nM and 100 to 1000 nM, respectively.
Consider `CC(C)Nc1nc(Nc2ccnc(Cl)c2)nc(-c2ccccc2)n1` [Compound 199, N^2-(2-chloropyridin-4-yl)-N^4-isopropyl-6-phenyl-1,3,5-triazine-2,4-diamine], for which the IC50 in assay [1], in assay [2] and in assay [3] was under 100 nM throughout.
As for `CC1(Nc2nc(Nc3ccnc(C(F)(F)F)c3)nc(-c3cccc(C(F)(F)F)n3)n2)COC1` [Compound 549, N-(3-Methyl-oxetan-3-yl)-6-(6-trifluoromethyl-pyridin-2-yl)-N′-(2-trifluoromethyl-pyridin-4-yl)-[1,3,5]triazine-2,4-diamine], the IC50 in assay [1] was under 100 nM; in assay [2], 100 to 1000 nM; in assay [3], under 100 nM.
For `CC(C)Nc1nc(Nc2cncc(C(F)(F)F)c2)nc(-c2ccccc2F)n1` [Compound 372, 6-(2-fluorophenyl)-N^2-isopropyl-N^4-(5-(trifluoromethyl)pyridin-3-yl)-1,3,5-triazine-2,4-diamine], the IC50 in assay [1], in assay [2] and in assay [3] was under 100 nM each time.
Take `FC(F)(F)c1cc(Nc2nc(NC3COC3)nc(-c3ccccn3)n2)ccn1` [Compound 336, N^2-(oxetan-3-yl)-6-(pyridin-2-yl)-N^4-(2-(trifluoromethyl)pyridin-4-yl)-1,3,5-triazine-2,4-diamine]: the IC50 in assay [1] is under 100 nM; in assay [2], 100 to 1000 nM; in assay [3], 100 to 1000 nM.
For `CC1(CNc2nc(Nc3ccnc(C(F)(F)F)c3)nc(-c3cccc(C(F)(F)F)n3)n2)COC1` [Compound 550, N-(3-Methyl-oxetan-3-ylmethyl)-6-(6-trifluoromethyl-pyridin-2-yl)-N′-(2-trifluoromethyl-pyridin-4-yl)-[1,3,5]triazine-2,4-diamine], the IC50 in assay [1] was under 100 nM; in assay [2], 100 to 1000 nM; in assay [3] it was under 100 nM.
For `CC(C)Nc1nc(Nc2ccncc2)nc(-c2ccccc2)n1` [Compound 129, N^2-isopropyl-6-phenyl-N^4-(pyridin-4-yl)-1,3,5-triazine-2,4-diamine], the IC50 in assay [1] is 100 to 1000 nM; in assay [2] it was under 100 nM; in assay [3], 1000 to 10000 nM.

The values are drawn from patent US9512107B2, “Therapeutically active compositions and their methods of use” (Agios Pharmaceuticals, Inc., priority 2012, dated 2016).
